Values quoted from earlier work in patent publication US8518458B2, “Tea-derived compositions and methods of using same for cardiovascular health” (Immune Guard, LLC, priority 2006, dated 2013).

Conditions: spontaneously hypertensive rats

In the case of `CCNC(=O)CC[C@H](N)C(=O)O` [L-theanine, γ-glutamylethylamide], the “effect on blood pressure” value is given as “reduces blood pressure”.
